Measured values taken from the supplement of paper PMC10307832.

Key:
Test in all cases: relative viability (nuclei count vs DMSO), 5 days (fraction); higher = more cells survive
[1] = compound: O=C(CCCCCCC(=O)Nc1ccccc1)NO [Vorinostat]
Outline: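 Acceptance criteria were a control CV below 25% and at least one doubling per plate. Lung cancer cell lines in 1536-well plates got five library-drug doses (not always all listed) √10 apart by pinning and were left 5 days with no medium change. Viability divides treated-well nuclei by vehicle-well nuclei and is the median across plates. Nuclei were counted by MetaXpress from 4× Hoechst images.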

[2] = compound: O=C(CCCCCCC(=O)Nc1ccccc1)NO [Vorinostat] + CS(=O)(=O)CCNCc1ccc(-c2ccc3ncnc(Nc4ccc(OCc5cccc(F)c5)c(Cl)c4)c3c2)o1 [Lapatinib] (partner 2 µM)
Outline: (§1)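 Medians of duplicate plates are given as relative viability. That measure is the nuclei count in treated wells divided by the count in vehicle wells. Counts were taken on 4× images of lung cancer cell lines in 1536-well plates, 5 days after pin-tool dosing the day after seeding with one drug alone or a fixed anchor-drug dose plus five library-drug doses (not always all listed) in √10 steps.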

[3] = compound: O=C(CCCCCCC(=O)Nc1ccccc1)NO [Vorinostat] + C[C@]1(O)C[C@@H](c2nc(-c3ccc4ccc(-c5ccccc5)nc4c3)c3c(N)nccn32)C1 [Linsitinib] (partner 1 µM)
Outline: as §1

[4] = compound: O=C(CCCCCCC(=O)Nc1ccccc1)NO [Vorinostat] + Cc1nc(NC(=O)N2CCC[C@H]2C(N)=O)sc1-c1ccnc(C(C)(C)C(F)(F)F)c1 [Alpelisib] (partner 2 µM)
Outline: as §1

[5] = compound: O=C(CCCCCCC(=O)Nc1ccccc1)NO [Vorinostat] + CS(=O)(=O)N1CCN(Cc2cc3nc(-c4cccc5[nH]ncc45)nc(N4CCOCC4)c3s2)CC1 [Pictilisib] (partner 1 µM)
Outline: as §1

[6] = compound: O=C(CCCCCCC(=O)Nc1ccccc1)NO [Vorinostat] + CC(C)C[C@H](NC(=O)[C@H](Cc1ccccc1)NC(=O)c1cnccn1)B(O)O [Bortezomib] (partner 0.002 µM)
Outline: as §1

[7] = compound: O=C(CCCCCCC(=O)Nc1ccccc1)NO [Vorinostat] + CC1(C)CCC(c2ccc(Cl)cc2)=C(CN2CCN(c3ccc(C(=O)NS(=O)(=O)c4ccc(N[C@H](CCN5CCOCC5)CSc5ccccc5)c(S(=O)(=O)C(F)(F)F)c4)cc3)CC2)C1 [Navitoclax] (partner 0.5 µM)
Outline: as §1

[8] = compound: O=C(CCCCCCC(=O)Nc1ccccc1)NO [Vorinostat] + O=C(c1cc(Cc2n[nH]c(=O)c3ccccc23)ccc1F)N1CCN(C(=O)C2CC2)CC1 [Olaparib] (partner 8 µM)
Outline: as §1

[9] = compound: O=C(CCCCCCC(=O)Nc1ccccc1)NO [Vorinostat] + COc1cc2c(Oc3ccc(NC(=O)C4(C(=O)Nc5ccc(F)cc5)CC4)cc3F)ccnc2cc1OCCCN1CCOCC1 [Foretinib] (partner 0.25 µM)
Outline: as §1

[10] = compound: O=C(CCCCCCC(=O)Nc1ccccc1)NO [Vorinostat] + C[C@@H](Oc1cc(-c2cnn(C3CCNCC3)c2)cnc1N)c1c(Cl)ccc(F)c1Cl [Crizotinib] (partner 1 µM)
Outline: as §1

[11] = compound: O=C(CCCCCCC(=O)Nc1ccccc1)NO [Vorinostat] + Nc1ncn([C@H]2C[C@H](O)[C@@H](CO)O2)c(=O)n1 [Decitabine] (partner 2 µM)
Outline: as §1

[12] = compound: O=C(CCCCCCC(=O)Nc1ccccc1)NO [Vorinostat] + NC(=O)Nc1cc(-c2cccc(F)c2)sc1C(=O)N[C@H]1CCCNC1 [AZD7762] (partner 0.2 µM)
Outline: as §1

[13] = compound: O=C(CCCCCCC(=O)Nc1ccccc1)NO [Vorinostat] + COc1cccc2cc(-c3nc([C@H]4CC[C@H](C(=O)O)CC4)n4ncnc(N)c34)[nH]c12 [OSI-027] (partner 0.5 µM)
Outline: as §1

[14] = compound: O=C(CCCCCCC(=O)Nc1ccccc1)NO [Vorinostat] + Cc1cc(Nc2cc(N3CCN(C)CC3)nc(Sc3ccc(NC(=O)C4CC4)cc3)n2)n[nH]1 [Tozasertib] (partner 0.1 µM)
Outline: as §1

[15] = compound: O=C(CCCCCCC(=O)Nc1ccccc1)NO [Vorinostat] + CC(=O)Nc1cccc(-n2c(=O)n(C3CC3)c(=O)c3c(Nc4ccc(I)cc4F)n(C)c(=O)c(C)c32)c1 [Trametinib] (partner 0.02 µM)
Outline: as §1

[16] = compound: O=C(CCCCCCC(=O)Nc1ccccc1)NO [Vorinostat] + Nc1nc2[nH]cc(CCc3ccc(C(=O)N[C@@H](CCC(=O)O)C(=O)O)cc3)c2c(=O)[nH]1 [Pemetrexed] (partner 0.2 µM)
Outline: as §1

[17] = compound: O=C(CCCCCCC(=O)Nc1ccccc1)NO [Vorinostat] + CC(=O)c1c(C)c2cnc(Nc3ccc(N4CCNCC4)cn3)nc2n(C2CCCC2)c1=O [Palbociclib] (partner 0.5 µM)
Outline: as §1

## Calu-6
[1]; 0.253 µM
  relative viability: 1.07
[1]; 0.8 µM
  relative viability: 0.894
[1]; 2.53 µM
  relative viability: 0.361
[1]; 8 µM
  relative viability: 0.0946
[2]; first compound 0.253 µM
  relative viability: 1.12
[2]; first compound 0.8 µM
  relative viability: 0.876
[2]; first compound 2.53 µM
  relative viability: 0.416
[2]; first compound 8 µM
  relative viability: 0.107
[3]; first compound 0.253 µM
  relative viability: 0.995
[3]; first compound 0.8 µM
  relative viability: 0.868
[3]; first compound 2.53 µM
  relative viability: 0.293
[3]; first compound 8 µM
  relative viability: 0.0756
[4]; first compound 0.253 µM
  relative viability: 1.25
[4]; first compound 0.8 µM
  relative viability: 0.917
[4]; first compound 2.53 µM
  relative viability: 0.302
[4]; first compound 8 µM
  relative viability: 0.0879
[5]; first compound 0.253 µM
  relative viability: 1.11
[5]; first compound 0.8 µM
  relative viability: 0.838
[5]; first compound 2.53 µM
  relative viability: 0.238
[5]; first compound 8 µM
  relative viability: 0.0615
[6]; first compound 0.253 µM
  relative viability: 0.917
[6]; first compound 0.8 µM
  relative viability: 0.864
[6]; first compound 2.53 µM
  relative viability: 0.434
[6]; first compound 8 µM
  relative viability: 0.127
[7]; first compound 0.253 µM
  relative viability: 0.849
[7]; first compound 0.8 µM
  relative viability: 0.761
[7]; first compound 2.53 µM
  relative viability: 0.212
[7]; first compound 8 µM
  relative viability: 0.0656
[8]; first compound 0.253 µM
  relative viability: 0.527
[8]; first compound 0.8 µM
  relative viability: 0.377
[8]; first compound 2.53 µM
  relative viability: 0.169
[8]; first compound 8 µM
  relative viability: 0.078
[9]; first compound 0.253 µM
  relative viability: 0.975
[9]; first compound 0.8 µM
  relative viability: 0.728
[9]; first compound 2.53 µM
  relative viability: 0.183
[9]; first compound 8 µM
  relative viability: 0.0381
[10]; first compound 0.253 µM
  relative viability: 0.745
[10]; first compound 0.8 µM
  relative viability: 0.5
[10]; first compound 2.53 µM
  relative viability: 0.153
[10]; first compound 8 µM
  relative viability: 0.0713

## EBC-1
[1]; 0.253 µM
  relative viability: 0.913
[1]; 0.8 µM
  relative viability: 0.654
[1]; 2.53 µM
  relative viability: 0.222
[1]; 8 µM
  relative viability: 0.0742
[2]; first compound 0.253 µM
  relative viability: 0.243
[2]; first compound 0.8 µM
  relative viability: 0.209
[2]; first compound 2.53 µM
  relative viability: 0.164
[2]; first compound 8 µM
  relative viability: 0.124
[3]; first compound 0.253 µM
  relative viability: 0.838
[3]; first compound 0.8 µM
  relative viability: 0.458
[3]; first compound 2.53 µM
  relative viability: 0.134
[3]; first compound 8 µM
  relative viability: 0.0589
[4]; first compound 0.253 µM
  relative viability: 0.675
[4]; first compound 0.8 µM
  relative viability: 0.65
[4]; first compound 2.53 µM
  relative viability: 0.143
[4]; first compound 8 µM
  relative viability: 0.0927
[5]; first compound 0.253 µM
  relative viability: 0.32
[5]; first compound 0.8 µM
  relative viability: 0.203
[5]; first compound 2.53 µM
  relative viability: 0.1
[5]; first compound 8 µM
  relative viability: 0.0715
[6]; first compound 0.253 µM
  relative viability: 0.376
[6]; first compound 0.8 µM
  relative viability: 0.325
[6]; first compound 2.53 µM
  relative viability: 0.124
[6]; first compound 8 µM
  relative viability: 0.0971
[7]; first compound 0.253 µM
  relative viability: 0.376
[7]; first compound 0.8 µM
  relative viability: 0.215
[7]; first compound 2.53 µM
  relative viability: 0.126
[7]; first compound 8 µM
  relative viability: 0.114
[8]; first compound 0.253 µM
  relative viability: 0.681
[8]; first compound 0.8 µM
  relative viability: 0.476
[8]; first compound 2.53 µM
  relative viability: 0.193
[8]; first compound 8 µM
  relative viability: 0.0767
[9]; first compound 0.253 µM
  relative viability: 0.117
[9]; first compound 0.8 µM
  relative viability: 0.101
[9]; first compound 2.53 µM
  relative viability: 0.0655
[9]; first compound 8 µM
  relative viability: 0.044
[10]; first compound 0.253 µM
  relative viability: 0.207
[10]; first compound 0.8 µM
  relative viability: 0.224
[10]; first compound 2.53 µM
  relative viability: 0.169
[10]; first compound 8 µM
  relative viability: 0.118

## NCI-H1648
[1]; 0.253 µM
  relative viability: 0.815
[1]; 0.8 µM
  relative viability: 0.725
[1]; 1 µM, anchor plate
  relative viability: 0.596
[1]; 2.53 µM
  relative viability: 0.252
[1]; 8 µM
  relative viability: 0.209
[11]; first compound 0.253 µM
  relative viability: 0.414
[11]; first compound 0.8 µM
  relative viability: 0.473
[11]; first compound 2.53 µM
  relative viability: 0.215
[11]; first compound 8 µM
  relative viability: 0.22
[12]; first compound 0.253 µM
  relative viability: 0.51
[12]; first compound 0.8 µM
  relative viability: 0.496
[12]; first compound 2.53 µM
  relative viability: 0.331
[12]; first compound 8 µM
  relative viability: 0.212
[13]; first compound 0.253 µM
  relative viability: 0.252
[13]; first compound 0.8 µM
  relative viability: 0.267
[13]; first compound 2.53 µM
  relative viability: 0.28
[13]; first compound 8 µM
  relative viability: 0.263
[14]; first compound 0.253 µM
  relative viability: 0.457
[14]; first compound 0.8 µM
  relative viability: 0.319
[14]; first compound 2.53 µM
  relative viability: 0.161
[14]; first compound 8 µM
  relative viability: 0.158
[15]; first compound 0.253 µM
  relative viability: 0.596
[15]; first compound 0.8 µM
  relative viability: 0.494
[15]; first compound 2.53 µM
  relative viability: 0.191
[15]; first compound 8 µM
  relative viability: 0.191
[16]; first compound 0.253 µM
  relative viability: 0.598
[16]; first compound 0.8 µM
  relative viability: 0.595
[16]; first compound 2.53 µM
  relative viability: 0.428
[16]; first compound 8 µM
  relative viability: 0.241
[8]; first compound 0.253 µM
  relative viability: 1.13
[8]; first compound 0.8 µM
  relative viability: 0.674
[8]; first compound 2.53 µM
  relative viability: 0.212
[8]; first compound 8 µM
  relative viability: 0.201
[17]; first compound 0.253 µM
  relative viability: 0.278
[17]; first compound 0.8 µM
  relative viability: 0.239
[17]; first compound 2.53 µM
  relative viability: 0.224
[17]; first compound 8 µM
  relative viability: 0.213
